Results published in patent publication US7368578B2, “Five-membered heterocyclic compounds” (Takeda Pharmaceutical Company Limited, priority 2002, dated 2008).

Row | SMILES | melting point
1 | Cc1oc(-c2ccco2)nc1COc1cccc(COc2nn(Cc3ccccc3)cc2C=O)c1 [Example 28, 1-benzyl-3-[(3-{[2-(2-furyl)-5-methyl-1,3-oxazol-4-yl]methoxy}benzyl)oxy]-1H-pyrazole-4-carbaldehyde] | 135 to 136 °C
2 | Cc1oc(-c2ccccc2)nc1COc1ccc(COc2nn(-c3ccccc3)cc2/C=C/C(=O)O)cc1 [Example 83, (2E)-3-[3-({4-[(2-phenyl-5-methyl-1,3-oxazol-4-yl)methoxy]benzyl}oxy)-1-phenyl-1H-pyrazol-4-yl]-2-propenoic acid] | 186 to 187 °C
3 | COc1cc(COc2nn(-c3ccccc3)cc2C=O)ccc1OCc1csc(N2CCOCC2)n1 [Example 197, 3-({3-methoxy-4-[(2-morpholin-4-yl-1,3-thiazol-4-yl)methoxy]benzyl}oxy)-1-phenyl-1H-pyrazole-4-carbaldehyde] | 128 to 129 °C
4 | CCOP(=O)(/C=C/c1cn(-c2ccccc2)nc1OCc1ccc(OCc2nc(-c3ccccc3)oc2C)cc1)OCC | 109 to 110 °C
5 | COCOCc1nc(-c2ccccc2)oc1COc1ccc(OCc2nc(-c3ccccc3)oc2C)cc1 [Example 92, 4-[(methoxymethoxy)methyl]-5-({4-[(5-methyl-2-phenyl-1,3-oxazol-4-yl)methoxy]phenoxy}methyl)-2-phenyl-1,3-oxazole] | 74 to 75 °C
6 | CCOC(=O)/C=C/c1cc(OCc2ccc(OCc3nc(-c4ccco4)oc3C)c(OC)c2)nn1-c1ccccc1 [Example 135, ethyl (2E)-3-{3-[(4-{[2-(2-furyl)-5-methyl-1,3-oxazol-4-yl]methoxy}-3-methoxybenzyl)oxy]-1-phenyl-1H-pyrazol-5-yl}-2-propenoate] | 127 to 128 °C
7 | CCOC(=O)/C=C/c1nc(-c2ccccc2)oc1COc1ccc(OCc2nc(-c3ccccc3)oc2C)cc1 [Example 258, ethyl (2E)-3-[5-({4-[(5-methyl-2-phenyl-1,3-oxazol-4-yl)methoxy]phenoxy}methyl)-2-phenyl-1,3-oxazol-4-yl]-2-propenoate] | 107 to 108 °C
8 | COc1cc(COc2nn(-c3ccccc3)cc2/C=C/c2nnco2)ccc1OCc1nc(-c2ccco2)oc1C [Example 118, 2-((E)-2-{3-[(4-{[2-(2-furyl)-5-methyl-1,3-oxazol-4-yl]methoxy}-3-methoxybenzyl)oxy]-1-phenyl-1H-pyrazol-4-yl}ethenyl)-1,3,4-oxadiazole] | 162 to 163 °C
9 | COc1cc(COc2nn(-c3ccccc3)cc2/C=C/c2csc(CO)n2)ccc1OCc1nc(-c2ccc(CC(=O)O)cc2)oc1C [Example 365, (4-{4-[(4-{[(4-{(E)-2-[2-(hydroxymethyl)-1,3-thiazol-4-yl]ethenyl}-1-phenyl-1H-pyrazol-3-yl)oxy]methyl}-2-methoxyphenoxy)methyl]-5-methyl-1,3-oxazol-2-yl}phenyl)acetic acid] | 204 to 205 °C
10 | COc1cc(COc2nn(-c3ccccc3)cc2/C=C/P(=O)(O)O)ccc1OCc1nc(-c2ccco2)oc1C [Example 158, (E)-2-{3-[(4-{[2-(2-furyl)-5-methyl-1,3-oxazol-4-yl]methoxy}-3-methoxybenzyl)oxy]-1-phenyl-1H-pyrazol-4-yl}ethenylphosphonic acid] | 138 to 140 °C
11 | COc1cc(COc2nn(-c3ccccc3)cc2/C=C/c2cncn2C)ccc1OCc1nc(-c2ccco2)oc1C [Example 181, 2-(2-furyl)-4-({2-methoxy-4-[({4-[(E)-2-(1-methyl-1H-imidazol-5-yl)ethenyl]-1-phenyl-1H-pyrazol-3-yl}oxy)methyl]phenoxy}methyl)-5-methyl-1,3-oxazole] | 144 to 145 °C
12 | CCCc1noc(/C=C/c2cn(-c3ccccc3)nc2OCc2ccc(OCc3nc(-c4ccco4)oc3C)c(OC)c2)n1 [Example 124, 5-((E)-2-{3-[(4-{[2-(2-furyl)-5-methyl-1,3-oxazol-4-yl]methoxy}-3-methoxybenzyl)oxy]-1-phenyl-1H-pyrazol-4-yl}ethenyl)-3-propyl-1,2,4-oxadiazole] | 192 to 193 °C
13 | CCOP(=O)(/C=C/c1cn(-c2ccccc2)nc1OCc1ccc(OCc2nc(-c3ccccc3)cn2C)c(OC)c1)OCC | 144 to 145 °C
14 | CCOP(=O)(/C=C/c1cn(-c2ccccc2)nc1OCc1ccc(OCc2nc(-c3ccc(C(=O)O)cc3)oc2C)c(OC)c1)OCC | 194 to 195 °C
15 | CCCc1nnc(/C=C/c2cn(-c3ccccc3)nc2OCc2ccc(OCc3nc(-c4ccco4)oc3C)c(OC)c2)o1 [Example 127, 2-((E)-2-{3-[(4-{[2-(2-furyl)-5-methyl-1,3-oxazol-4-yl]methoxy}-3-methoxybenzyl)oxy]-1-phenyl-1H-pyrazol-4-yl}ethenyl)-5-propyl-1,3,4-oxadiazole] | 165 to 166 °C
16 | COc1cc(C(=O)Nc2nn(-c3ccccc3)cc2C=O)ccc1OCc1nc(-c2ccco2)oc1C [Example 290, N-(4-formyl-1-phenyl-1H-pyrazol-3-yl)-4-{[2-(2-furyl)-5-methyl-1,3-oxazol-4-yl]methoxy}-3-methoxybenzamide] | 212 to 213 °C
17 | COc1cc(COc2cc(C=O)n(-c3ccccc3)n2)ccc1OCc1nc(-c2ccccc2)oc1C [Example 294, 3-{[3-methoxy-4-(5-methyl-2-phenyl-1,3-oxazol-4-ylmethoxy)benzyl]oxy}-1-phenyl-1H-pyrazole-5-carbaldehyde] | 119 to 120 °C

Row | SMILES | melting point
18 | COc1cc(COc2nn(-c3ccccc3)cc2CC2SC(=O)N(C)C2=O)ccc1OCc1nc(-c2ccco2)oc1C (stereo not drawn) [Example 106, 5-({3-[(4-{[2-(2-furyl)-5-methyl-1,3-oxazol-4-yl]methoxy}-3-methoxybenzyl)oxy]-1-phenyl-1H-pyrazol-4-yl}methyl)-3-methyl-1,3-thiazolidine-2,4-dione] | 111 to 112 °C
19 | CCOC(=O)c1cnc(-c2ccccc2)nc1OCc1ccc(OCc2nc(-c3ccco3)oc2C)c(OC)c1 [Example 263, ethyl 4-[(4-{[2-(2-furyl)-5-methyl-1,3-oxazol-4-yl]methoxy}-3-methoxybenzyl)oxy]-2-phenylpyrimidine-5-carboxylate] | 142 to 143 °C
20 | COc1cc(COc2nn(C)cc2C(=O)O)ccc1OCc1nc(-c2ccccc2)oc1C [Example 265, 3-{[3-methoxy-4-(5-methyl-2-phenyl-1,3-oxazol-4-ylmethoxy)benzyl]oxy}-1-methyl-1H-pyrazole-4-carboxylic acid] | 169 to 170 °C
21 | CCOP(=O)(OCC)/C(O)=C/c1cn(-c2ccccc2)nc1OCc1ccc(OCc2nc(-c3ccco3)oc2C)c(OC)c1 | 147 to 149 °C
22 | CCOC(=O)c1ccc(-c2nc(COc3ccc(COc4nn(-c5ccccc5)cc4/C=C/P(=O)(OCC)OCC)cc3OC)c(C)o2)o1 | 129 to 130 °C
23 | CCOC(=O)c1cn(Cc2ccccc2)nc1OCc1ccc(OC)c(OCc2nc(-c3ccco3)oc2C)c1 [Example 32, ethyl 1-benzyl-3-[(3-{[2-(2-furyl)-5-methyl-1,3-oxazol-4-yl]methoxy}-4-methoxybenzyl)oxy]-1H-pyrazole-4-carboxylate] | 147 to 148 °C
24 | COc1cc(COc2nn(-c3ccccc3)cc2C=O)ccc1OCc1cn(-c2ccccn2)nc1C [Example 220, 3-({3-methoxy-4-[(3-methyl-1-pyridin-2-yl-1H-pyrazol-4-yl)methoxy]benzyl}oxy)-1-phenyl-1H-pyrazole-4-carbaldehyde] | 179 to 180 °C
25 | CCOC(=O)c1ccc(-c2nc(COc3ccc(COc4nn(-c5ccccc5)cc4C=O)cc3OC)c(C)o2)s1 [Example 327, ethyl 5-{4-[(4-{[(4-formyl-1-phenyl-1H-pyrazol-3-yl)oxy]methyl}-2-methoxyphenoxy)methyl]-5-methyl-1,3-oxazol-2-yl}thiophene-2-carboxylate] | 156 to 157 °C
26 | CCOC(=O)/C=C/c1cn(C)nc1OCc1ccc(OCc2nc(-c3ccco3)oc2C)c(OC)c1 [Example 165, ethyl (2E)-3-{3-[(4-([2-(2-furyl)-5-methyl-1,3-oxazol-4-yl]methoxy}-3-methoxybenzyl)oxy]-1-methyl-1H-pyrazol-4-yl)-2-propenoate] | 135 to 136 °C
27 | COc1cc(COc2nn(-c3ccccc3)cc2/C=C/C=O)ccc1OCc1nc(-c2ccco2)oc1C [Example 109, (2E)-3-{3-[(4-{[2-(2-furyl)-5-methyl-1,3-oxazol-4-yl]methoxy}-3-methoxybenzyl)oxy]-1-phenyl-1H-pyrazol-4-yl}-2-propenaldehyde] | 134 to 135 °C
28 | COc1cc(COc2nn(-c3ccccc3)cc2/C=C/P(=O)(OC)OC)ccc1OCc1nc(-c2ccco2)oc1C | 107 to 108 °C
29 | CCc1nc(/C=C\c2cn(-c3ccccc3)nc2OCc2ccc(OCc3nc(-c4ccco4)oc3C)c(OC)c2)cs1 [Example 152 (Z form), 4-({4-[({4-[(Z)-2-(2-ethyl-1,3-thiazol-4-yl)ethenyl]-1-phenyl-1H-pyrazol-3-yl}oxy)methyl]-2-methoxyphenoxy}methyl)-2-(2-furyl)-5-methyl-1,3-oxazole] | 132 to 133 °C
30 | COc1cc(COc2nn(-c3ccccc3)cc2/C=C/c2nc(N3CCOCC3)sc2C)ccc1OCc1nc(-c2ccc(CC(=O)O)cc2)oc1C [Example 385, [4-(4-{[2-methoxy-4-({[4-{(E)-2-[5-methyl-2-(morpholin-4-yl)-1,3-thiazol-4-yl]ethenyl}-1-phenyl-1H-pyrazol-3-yl]oxy}methyl)phenoxy]methyl)-5-methyl-1,3-oxazol-2-yl}phenyl]acetic acid] | 171 to 173 °C
31 | COc1cc(COc2nn(-c3ccccc3)cc2CCc2cscn2)ccc1OCc1nc(-c2ccco2)oc1C [Example 119, 2-(2-furyl)-4-({2-methoxy-4-[({1-phenyl-4-[2-(1,3-thiazol-4-yl)ethyl]-1H-pyrazol-3-yl}oxy)methyl]phenoxy}methyl)-5-methyl-1,3-oxazole] | 127 to 128 °C
32 | CCOP(=O)(/C=C/c1cn(C)nc1OCc1ccc(OCc2nc(-c3ccco3)oc2C)c(OC)c1)OCC | 72 to 73 °C
33 | CCOC(=O)/C=C/c1cn(Cc2ccccc2)nc1OCc1ccc(OCc2nc(-c3ccco3)oc2C)c(OC)c1 [Example 259, ethyl (2E)-3-{1-benzyl-3-[(4-{[2-(2-furyl)-5-methyl-1,3-oxazol-4-yl]methoxy}-3-methoxybenzyl)oxy]-1H-pyrazol-4-yl}-2-propenoate] | 147 to 148 °C
